Test results published in PMC11086599, “Cyanobacterial α-carboxysome carbonic anhydrase is allosterically regulated by the Rubisco substrate RuBP” (Science Advances, 2024).
Each block holds one molecule with its values, some of them ahead of it.

Tests used:
HnCsoSCA = biological target: T1, HnCsoSCA (Halothiobacillus neapolitanus, UniProt O85042); settings: labelled compound; 2.7 mM NaH13C18O3, 50 mM EPPS-NaOH, 20 mM MgCl2, pH 7.8, DTNB; no RuBP needed
T1 construct: gene csoS3

CyCsoSCA [1] = biological target: T2, CyCsoSCA (Cyanobium sp. PCC 7001, UniProt Z9Q2N2GQP4, K469D); experiment: membrane inlet mass spectrometry […]-exchange CA assay; assay type: biochemical; settings: 100 μM RuBP; allosteric activator; same buffer
T2 construct: first 116 residues (disordered N-terminal tail) removed; pHue His-ubiquitin fusion, tag cleaved with USP2; expressed in E. coli; homohexamer (trimer of dimers)
T2 sequence (Z9Q2N2GQP4 117-583 K469D): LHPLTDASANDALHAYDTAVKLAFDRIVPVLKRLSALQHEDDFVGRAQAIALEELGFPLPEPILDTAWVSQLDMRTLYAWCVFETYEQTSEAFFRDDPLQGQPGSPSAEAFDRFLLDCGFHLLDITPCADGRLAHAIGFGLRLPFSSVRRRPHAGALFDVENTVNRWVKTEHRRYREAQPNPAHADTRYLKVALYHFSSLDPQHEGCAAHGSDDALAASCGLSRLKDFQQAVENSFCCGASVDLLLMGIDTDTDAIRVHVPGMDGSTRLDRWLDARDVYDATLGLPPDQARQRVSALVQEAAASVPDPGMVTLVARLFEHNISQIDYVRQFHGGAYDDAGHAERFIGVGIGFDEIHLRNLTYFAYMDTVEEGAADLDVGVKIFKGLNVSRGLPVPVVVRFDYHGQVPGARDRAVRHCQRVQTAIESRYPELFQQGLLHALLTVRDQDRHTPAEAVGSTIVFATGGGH

CyCsoSCA [2] = biological target: T3, CyCsoSCA (Cyanobium sp. PCC 7001, UniProt Z9Q2N2GQP4, H472Q); experiment: as above; assay type: biochemical; settings: 100 μM RuBP; allosteric activator; same buffer
T3 construct: first 116 residues (disordered N-terminal tail) removed; pHue His-ubiquitin fusion, tag cleaved with USP2; expressed in E. coli; homohexamer (trimer of dimers)
T3 sequence (Z9Q2N2GQP4 117-583 H472Q): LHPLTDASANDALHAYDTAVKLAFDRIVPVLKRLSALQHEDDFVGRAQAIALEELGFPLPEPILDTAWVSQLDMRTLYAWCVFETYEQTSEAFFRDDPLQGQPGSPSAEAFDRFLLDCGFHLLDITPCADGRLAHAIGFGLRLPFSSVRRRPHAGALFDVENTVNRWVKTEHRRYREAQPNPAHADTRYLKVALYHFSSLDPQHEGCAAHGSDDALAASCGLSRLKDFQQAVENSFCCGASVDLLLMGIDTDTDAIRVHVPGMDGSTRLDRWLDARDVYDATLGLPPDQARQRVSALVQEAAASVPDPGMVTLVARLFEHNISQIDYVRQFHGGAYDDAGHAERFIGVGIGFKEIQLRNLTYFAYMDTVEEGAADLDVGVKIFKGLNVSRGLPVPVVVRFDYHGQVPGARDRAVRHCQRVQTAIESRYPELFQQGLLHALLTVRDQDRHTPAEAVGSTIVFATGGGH

CyCsoSCA [3] = biological target: T4, CyCsoSCA (Cyanobium sp. PCC 7001, UniProt Z9Q2N2GQP4); experiment: membrane inlet mass spectrometry […]-exchange CA assay; Hill fit; assay type: biochemical; settings: allosteric activator of bicarbonate dehydration/CO2 hydration; sigmoidal, Hill slope 2.214; 2.7 mM labelled bicarbonate, 50 mM EPPS-NaOH, 20 mM MgCl2, pH 7.8; site near dimer interface (R266, K469, R5)
T4 construct: first 116 residues (disordered N-terminal tail) removed; pHue His-ubiquitin fusion, tag cleaved with USP2; expressed in E. coli; homohexamer (trimer of dimers)
T4 sequence (Z9Q2N2GQP4 117-583): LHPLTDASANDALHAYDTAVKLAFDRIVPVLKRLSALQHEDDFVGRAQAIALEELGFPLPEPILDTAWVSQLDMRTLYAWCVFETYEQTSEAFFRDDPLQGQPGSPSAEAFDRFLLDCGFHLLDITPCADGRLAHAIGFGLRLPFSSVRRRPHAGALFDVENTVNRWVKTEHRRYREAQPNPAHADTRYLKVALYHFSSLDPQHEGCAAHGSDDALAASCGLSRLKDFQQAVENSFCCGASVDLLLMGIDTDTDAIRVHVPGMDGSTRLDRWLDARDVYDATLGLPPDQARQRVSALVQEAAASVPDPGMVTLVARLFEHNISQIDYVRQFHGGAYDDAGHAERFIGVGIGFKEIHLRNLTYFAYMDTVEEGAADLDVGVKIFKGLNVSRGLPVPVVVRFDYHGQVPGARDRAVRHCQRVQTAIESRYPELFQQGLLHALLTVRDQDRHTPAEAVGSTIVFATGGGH

CyCsoSCA [4] = biological target: T5, CyCsoSCA (Cyanobium sp. PCC 7001, UniProt Z9Q2N2GQP4, T477A); experiment: membrane inlet mass spectrometry […]-exchange CA assay; assay type: biochemical; settings: 100 μM RuBP; allosteric activator; same buffer
T5 construct: first 116 residues (disordered N-terminal tail) removed; pHue His-ubiquitin fusion, tag cleaved with USP2; expressed in E. coli; homohexamer (trimer of dimers)
T5 sequence (Z9Q2N2GQP4 117-583 T477A): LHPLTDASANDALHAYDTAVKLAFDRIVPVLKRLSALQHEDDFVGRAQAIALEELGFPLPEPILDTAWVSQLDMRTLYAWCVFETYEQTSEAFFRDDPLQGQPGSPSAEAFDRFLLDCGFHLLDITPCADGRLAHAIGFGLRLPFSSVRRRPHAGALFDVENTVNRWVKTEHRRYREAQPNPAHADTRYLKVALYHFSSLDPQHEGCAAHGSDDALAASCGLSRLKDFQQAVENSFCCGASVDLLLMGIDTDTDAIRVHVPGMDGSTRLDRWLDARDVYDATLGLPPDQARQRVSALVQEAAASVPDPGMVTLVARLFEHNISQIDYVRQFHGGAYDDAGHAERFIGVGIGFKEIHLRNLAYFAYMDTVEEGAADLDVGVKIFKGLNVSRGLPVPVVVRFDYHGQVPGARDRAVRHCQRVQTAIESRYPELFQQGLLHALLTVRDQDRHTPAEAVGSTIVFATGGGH

[5] = biological target: Cyanobium sp. PCC7001 CsoSCA (α-carboxysome carbonic anhydrase), truncated form lacking the 116-residue disordered N-terminal region (Cyanobium sp. PCC7001); experiment: SEC; size exclusion chromatography of the purified protein in solution (fig. S13); conditions of this run not told in the main text
[6] = biological target: Cyanobium sp. PCC7001 CsoSCA (α-carboxysome carbonic anhydrase), truncated form lacking the 116-residue disordered N-terminal region (Cyanobium sp. PCC7001); experiment: crystal structure; CyCsoSCA co-crystallised with RuBP (RuBP:CyCsoSCA 10:1), 7 mg/ml protein, 0.2 M ammonium sulfate, 0.1 M bis-tris pH 6.5, 21% PEG 3350, 15% ethylene glycol; one hexamer in the asymmetric unit, P212121
[7] = biological target: the molecule itself; experiment: SEC; size exclusion chromatography of the purified protein in solution (fig. S13); conditions of this run not told in the main text

Molecule: O=C(O)O [HCO3^−]
membrane inlet mass spectrometry 18O-exchange CA assay (HnCsoSCA): HCO3^− dehydration activity was recorded using MIMS after the addition of CsoSCA variants

B1: Halothiobacillus neapolitanus CsoSCA (α-carboxysome carbonic anhydrase), truncated form lacking the first 49 residues (enzyme, UniProt O85042 50-514, looked up)
chain: RHPLTDLEANEQLGRCEDSVKNRFDRVIPFLQVVAGIPLGLDYVTRVQELAQSSLGHTLPEELLKDNWISGHNLKGIFGYATAKALTAATEQFSRKIMSEKDDSASAIGFFLDCGFHAVDISPCADGRLKGLLPYILRLPLTAFTYRKAYAGSMFDIEDDLAQWEKNELRRYREGVPNTADQPTRYLKIAVYHFSTSDPTHSGCAAHGSNDRAALEAALTQLMKFREAVENAHCCGASIDILLIGVDTDTDAIRVHIPDSKGFLNPYRYVDNTVTYAQTLHLAPDEARVIIHEAILNANRSDGWAKGNGVASEGMRRFIGQLLINNLSQIDYVVNRHGGRYPPNDIGHAERYISVGDGFDEVQIRNLAYYAHLDTVEENAIDVDVGIKIFTKLNLSRGLPIPIAIHYRYDPNVPGSRERTVVKARRIYNAIKERFSSLDEQNLLQFRLSVQAQDIGSPIEEVASA
notes: CsoSCA carbonic anhydrase of Halothiobacillus neapolitanus, O85042 with the first 49 residues (disordered N-terminal region) removed; codon-optimised for E. coli; also called HnCsoSCA; wild-type HnCsoSCA; source: E. coli NEB T7 Express pLysY, pHue plasmid, purified (HisTrap, USP2 cleavage, second HisTrap, SEC on Superdex 200)
stoichiometry N [7]: 6

More lines, main results first:

EC50 (CyCsoSCA [3]): 18 ± 2 µM
Molecule: O=C(COP(=O)(O)O)[C@H](O)[C@H](O)COP(=O)(O)O [RuBP]
membrane inlet mass spectrometry 18O-exchange CA assay (CyCsoSCA [1]): a minor increase in activity upon addition of the ligand | membrane inlet mass spectrometry 18O-exchange CA assay (CyCsoSCA [2]): H472Q mutation (targeted approach) and T477A (random approach) also resulted in a biphasic activity profile | membrane inlet mass spectrometry 18O-exchange CA assay (CyCsoSCA [4]): high levels of ligand-independent activity and a notable increase with RuBP

stoichiometry N [5]: 6 | stoichiometry N [6]: 6
Molecule: Cyanobium sp. PCC7001 CsoSCA (α-carboxysome carbonic anhydrase), truncated form lacking the 116-residue disordered N-terminal region (enzyme)
